A short description of data set [1]: Compound stability in human liver microsomes. It counts as in vitro ADME. Particulars: pH 7.4; for half-life at 5 μM: human liver microsomes 0.5 mg protein/mL, compound 5 μM, NADPH, 37° C., read-out: Human T1/2; for CLint scaled at 5 μM: human liver microsomes, in vivo CLint extrapolated. The gist of the method:
(§1)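 Each compound is tested in duplicate at 5 μM with 0.5 mg/mL microsomal protein plus 1.0 mM NADPH at 37° C, pH 7.4. Depletion over 60 min is followed by LC/MS/MS relative to time zero. CLint is derived by extrapolation.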

Data set [2] can be described thus: Pharmacokinetics after intravenous and oral administration in rats. It counts as in vivo. Conditions: for Clearance (CL) after iv dosing / AUC(0-t) / half-life / Vd: dose 1 mg/kg, iv dosing; for F: oral bioavailability; for AUC(0-t) / half-life / Vd: rat, plasma; for Vd: read-out: Vss. An outline of the steps: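 Compounds dosed IV at 0.5, 1 or 2 mg/kg and orally at 0.5, 1, 5 or 10 mg/kg in rats, as solution, suspension or capsule formulations. Serial blood sampled out to 24 h and plasma stored frozen. Plasma levels quantified by LC/MS/MS in ESI MRM mode.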

A further data set has as its target T1, Aurora-A (h) (Homo sapiens, UniProt O14965).
T1 construct: purchased Millipore UK Ltd (contract assay service)
T1 sequence (O14965 1-403): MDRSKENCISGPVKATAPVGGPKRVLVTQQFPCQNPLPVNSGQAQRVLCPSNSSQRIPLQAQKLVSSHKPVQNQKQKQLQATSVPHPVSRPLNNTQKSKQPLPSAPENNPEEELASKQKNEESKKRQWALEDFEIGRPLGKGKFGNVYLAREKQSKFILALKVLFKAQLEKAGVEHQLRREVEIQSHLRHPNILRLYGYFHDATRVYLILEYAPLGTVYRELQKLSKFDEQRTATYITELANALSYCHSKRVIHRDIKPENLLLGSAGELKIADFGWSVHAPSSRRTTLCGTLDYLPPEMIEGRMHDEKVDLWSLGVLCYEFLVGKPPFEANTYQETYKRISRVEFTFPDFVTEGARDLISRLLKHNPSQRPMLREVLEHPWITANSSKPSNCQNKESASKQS
Nature of the data set: Aurora-A (h) kinase assay. Type of data set: biochemical. As to the method:
(§2) The above assay procedure can be used to determine the IC50 for inhibition and/or the inhibition constant, Ki. The IC50 is defined as the concentration of compound required to reduce the enzyme activity by 50% under the condition of the assay. The IC50 value is estimated by preparing a 10 point curve using a 1/2 log dilution series (for example, a typical curve may be prepared using the following compound concentrations: 3 μM, 1 μM, 0.3 μM, 0.1 μM, 0.03 μM, 0.01 μM, 0.003 μM, 0.001 μM, 0.0003 μM and 0 μM).
Aurora-A (h) is incubated with 8 mM MOPS pH 7.0, 0.2 mM EDTA, 200 μM LRRASLG (Kemptide), 10 mM MgAcetate and [γ-^33P-ATP] (specific activity approx. 500 cpm/pmol, concentration as required). The reaction is initiated by the addition of the MgATP mix. After incubation for 40 minutes at room temperature, the reaction is stopped by the addition of 3% phosphoric acid solution. 10 μL of the reaction is then spotted onto a P30 filtermat and washed three times for 5 minutes in 75 mM phosphoric acid and once in methanol prior to drying and scintillation counting.
(§3) The kinase assays described herein were performed at Millipore UK Ltd, Dundee Technology Park, Dundee DD2 1SW, UK.

A short description of data set [3]: Compound stability in rat liver microsomes. Conditions: pH 7.4; for half-life at 5 μM: rat liver microsomes 0.5 mg protein/mL, compound 5 μM, NADPH, 37° C., read-out: Rat T1/2; for CLint scaled at 5 μM: rat liver microsomes, in vivo CLint extrapolated. It counts as in vitro ADME. The gist of the method: as §1
The target of the next data set is T2, Aurora-B (h) (Homo sapiens, UniProt Q96GD4).
T2 construct: purchased Millipore UK Ltd (contract assay service)
Nature of the data set: Aurora-B (h) kinase assay. Type of data set: biochemical. As to the method:
Kinase assays can be performed by measurement of incorporation of γ-^33P ATP into immobilized myelin basic protein (MBP). High binding white 384 well plates (Greiner) are coated with MBP (Sigma #M-1891) by incubation of 60 μL/well of 20 μg/mL MBP in Tris-buffered saline (TBS; 50 mM Tris pH 8.0, 138 mM NaCl, 2.7 mM KCl) for 24 h at 4° C. Plates are washed 3× with 100 μL TBS. Kinase reactions are carried out in a total volume of 34 μL in kinase buffer (according to the need to make, for example, 5 mM Hepes pH 7.6, 15 mM NaCl, 0.01% bovine gamma globulin (Sigma #1-5506), 10 mM MgCl2, 1 mM DTT, 0.02% TritonX-100). Compound dilutions are performed in DMSO and added to assay wells to a final DMSO concentration of 1%. Each data point is measured in duplicate, and at least two duplicate assays are performed for each individual compound determination. Enzyme is added to final concentrations of 10 nM or 20 nM, for example. A mixture of unlabeled ATP and γ-^33P ATP is added to start the reaction (2×10^6 cpm of γ-^33P ATP per well (3000 Ci/mmole) and 10 μM unlabeled ATP, typically. The reactions are carried out for 1 h at room temperature with shaking. Plates are washed 7× with TBS, followed by the addition of 50 µL/well scintillation fluid (Wallac). Plates are read using a Wallac Trilux counter. This is only one format of such assays; various other formats are possible, as known to one skilled in the art.
as §2
Aurora-B (h) is incubated with 8 mM MOPS pH 7.0, 0.2 mM EDTA, 30 μM AKRRRLSSLRA, 10 mM MgAcetate and [γ-^33PATP] (specific activity approx. 500 cpm/pmol, concentration as required). The reaction is initiated by the addition of the MgATP mix. After incubation for 40 minutes at room temperature, the reaction is stopped by the addition of a 3% phosphoric acid solution. 10 μL of the reaction is then spotted onto a P30 filtermat and washed three times for 5 minutes in 75 mM phosphoric acid and once in methanol prior to drying and scintillation counting.
as §3

T2 sequence (Q96GD4 whole entry): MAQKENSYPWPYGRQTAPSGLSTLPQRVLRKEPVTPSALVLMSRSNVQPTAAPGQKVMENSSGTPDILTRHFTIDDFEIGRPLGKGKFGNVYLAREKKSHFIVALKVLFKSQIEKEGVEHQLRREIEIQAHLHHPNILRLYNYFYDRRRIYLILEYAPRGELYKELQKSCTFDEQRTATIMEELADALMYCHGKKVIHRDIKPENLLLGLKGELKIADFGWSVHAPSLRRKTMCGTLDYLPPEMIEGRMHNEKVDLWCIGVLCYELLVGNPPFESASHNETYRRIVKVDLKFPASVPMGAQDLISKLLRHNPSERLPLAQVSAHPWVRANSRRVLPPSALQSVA

Consider `CC(C)CS(=O)(=O)N[C@@H]1COC2C1OC[C@@H]2Nc1nc(Nc2cnn(C)c2)ncc1Cl` (stereo partly drawn) [Ex. 13, N-((3R,6S)-6-((5-chloro-2-((1-methyl-1H-pyrazol-4-yl)amino)pyrimidin-4-yl)amino)hexahydrofuro[3,2-b]furan-3-yl)-2-methylpropane-1-sulfonamide], for which, in data set [1], the half-life at 5 μM was 32.9 min and the CLint scaled at 5 μM was 52.8 mL/min/kg. Moreover, in data set [2], the “Clearance (CL) after iv dosing” value is 57 mL/min/kg, the F worked out at 74.5%, the area under the curve AUC(0-t) was found to be 291 ng·h/mL and the half-life was 58.2 min. For the same compound, the Vd in data set [2] is 2.56 L/kg. Further, the IC50 on Aurora-A (h) came out at 1030 nM. In data set [3], the half-life at 5 μM stood at 41.4 min and the CLint scaled at 5 μM was 60 mL/min/kg.
Consider `Cn1cc(Nc2ncc(Cl)c(N[C@@H]3COC4C3OC[C@@H]4NS(=O)(=O)C3CCCC3)n2)cn1` (stereo partly drawn) [Ex. 14, N-((3S,6R)-6-((5-chloro-2-((1-methyl-1H-pyrazol-4-yl)amino)pyrimidin-4-yl)amino)hexahydrofuro[3,2-b]furan-3-yl)cyclopentanesulfonamide], for which, in data set [1], the half-life at 5 μM is 24.7 min and the CLint scaled at 5 μM was 70.4 mL/min/kg. In addition, in data set [2], the “Clearance (CL) after iv dosing” value stood at 33.3 mL/min/kg, the F is on record as 91.9%, the area under the curve AUC(0-t) stood at 497 ng·h/mL and the half-life is 54 min. Further, the Vd in data set [2] was found to be 1.08 L/kg. Also, half-maximal inhibition at Aurora-A (h) (IC50) was put at 51 nM. In data set [3], the half-life at 5 μM worked out at 47.7 min and the CLint scaled at 5 μM is 52.1 mL/min/kg.
Consider `CC(C)S(=O)(=O)N[C@H]1COC2C1OC[C@H]2Nc1nc(Nc2cnn(C)c2)ncc1Cl` (stereo partly drawn) [Ex. 15, N-((3S,6R)-6-((5-chloro-2-((1-methyl-1H-pyrazol-4-yl)amino)pyrimidin-4-yl)amino)hexahydrofuro[3,2-b]furan-3-yl)propane-2-sulfonamide], for which, in data set [1], the half-life at 5 μM turned out to be 143 min and the CLint scaled at 5 μM is 12.1 mL/min/kg. Further, in data set [2], the “Clearance (CL) after iv dosing” value came out at 23.2 mL/min/kg, the F was 86.5%, the AUC(0-t) was determined as 726 ng·h/mL and the half-life was 47.4 min. Also, the Vd in data set [2] came out at 1.11 L/kg. The same compound displayed an IC50 against Aurora-A (h) of 34 nM. In addition, in data set [3], the half-life at 5 μM was 91.6 min and the CLint scaled at 5 μM is 27.1 mL/min/kg.
Take `Cn1cc(Nc2ncc(Cl)c(N[C@@H]3COC4C3OC[C@@H]4NS(=O)(=O)C3CCOC3)n2)cn1` (stereo partly drawn) [Ex. 20, N-((3S,6R)-6-((5-chloro-2-((1-methyl-1H-pyrazol-4-yl)amino)pyrimidin-4-yl)amino)hexahydrofuro[3,2-b]furan-3-yl)tetrahydrofuran-3-sulfonamide]: in data set [1], the half-life at 5 μM was found to be 75.5 min and the CLint scaled at 5 μM was 23 mL/min/kg. Further, in data set [2], the “Clearance (CL) after iv dosing” value is 60.3 mL/min/kg, the F was 42.5%, the exposure AUC(0-t) worked out at 284 ng·h/mL and the half-life is 27.6 min. Also, the Vd in data set [2] stood at 1.41 L/kg. This compound registered a 50% inhibitory concentration (IC50) at Aurora-A (h) of 41 nM. In data set [3], the half-life at 5 μM amounted to 116 min and the intrinsic metabolic clearance (CLint scaled) at 5 μM is 21.5 mL/min/kg.
The compound `Cn1cc(Nc2ncc(Cl)c(N[C@@H]3COC4C3OC[C@@H]4NS(=O)(=O)CC(C)(C)C)n2)cn1` (stereo partly drawn) [Ex. 30, N-((3S,6R)-6-((5-chloro-2-((1-methyl-1H-pyrazol-4-yl)amino)pyrimidin-4-yl)amino)hexahydrofuro[3,2-b]furan-3-yl)-2,2-dimethylpropane-1-sulfonamide] registered an IC50 at Aurora-B (h) of 8 nM. Moreover, in data set [2], the “Clearance (CL) after iv dosing” value came out at 24.2 mL/min/kg, the F turned out to be 67.4%, the AUC(0-t) worked out at 696 ng·h/mL and the half-life was 37.8 min. The Vd in data set [2] was determined as 0.82 L/kg. This compound had a half-maximal inhibitory concentration (IC50) on Aurora-A (h) of 17 nM.
`Cn1cc(Nc2ncc(Cl)c(N[C@@H]3COC4C3OC[C@@H]4NS(=O)(=O)CC3CCC3)n2)cn1` (stereo partly drawn) [Ex. 31, N-((3S,6R)-6-((5-chloro-2-((1-methyl-1H-pyrazol-4-yl)amino)pyrimidin-4-yl)amino)hexahydrofuro[3,2-b]furan-3-yl)-1-cyclobutylmethanesulfonamide] returned an IC50 against Aurora-B (h) of 18 nM. In addition, in data set [2], the “Clearance (CL) after iv dosing” value is 18.8 mL/min/kg, the F is on record as 88.1%, the AUC(0-t) was 947 ng·h/mL and the half-life was 37.2 min. For the same compound, the Vd in data set [2] is 0.71 L/kg. This compound also showed an IC50 against Aurora-A (h) of 12 nM.
In the case of `CCC(C)CS(=O)(=O)N[C@H]1COC2C1OC[C@H]2Nc1nc(Nc2cnn(C)c2)ncc1Cl` (stereo partly drawn) [Ex. 33, N-((3S,6R)-6-((5-chloro-2-((1-methyl-1H-pyrazol-4-yl)amino)pyrimidin-4-yl)amino)hexahydrofuro[3,2-b]furan-3-yl)-2-methylbutane-1-sulfonamide], inhibition at Aurora-B (h) was half-maximal at 25 nM (IC50). Moreover, in data set [2], the “Clearance (CL) after iv dosing” value came out at 23.2 mL/min/kg, the F amounted to 53.6%, the AUC(0-t) worked out at 725 ng·h/mL and the half-life is 17.4 min. In data set [2], the Vd came to 0.57 L/kg. At Aurora-A (h), this compound gave a concentration for half-maximal inhibition (IC50) of 18 nM.
With `Cn1cc(Nc2ncc(Cl)c(N[C@@H]3COC4C3OC[C@@H]4NS(=O)(=O)CC3CCCO3)n2)cn1` (stereo partly drawn) [Ex. 34, N-((3S,6R)-6-((5-chloro-2-((1-methyl-1H-pyrazol-4-yl)amino)pyrimidin-4-yl)amino)hexahydrofuro[3,2-b]furan-3-yl)-1-(tetrahydrofuran-2-yl)methanesulfonamide], the half-maximal inhibitory concentration (IC50) on Aurora-B (h) was found to be 21 nM. In addition, in data set [2], the F is on record as 28.9%, the AUC(0-t) worked out at 1540 ng·h/mL, the half-life is 37.8 min and the Vd is 1.23 L/kg. The concentration for half-maximal inhibition (IC50) against Aurora-A (h) was determined as 24 nM.

For orientation: CLint scaled means a measure of how fast metabolising enzymes remove a compound, apart from limits set by blood flow. What is called AUC(0-t) is exposure summed from dosing to a finite time, without extrapolation to infinity. A lower AUC(0-t) goes with less exposure. The IC50 is the concentration that inhibits the measured activity by half. Higher therefore signals lower potency.

Values taken from patent US20170081338A1, “SUBSTITUTED HETEROARYL COMPOUNDS AND METHODS OF USE” (Sunshine Lake Pharma Co., Ltd., priority 2015, published 2017).
